According to PubChem BioAssay (NCI):
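Following 48 hours of exposure in 96-well plates, responses at five concentrations were used to interpolate endpoints linearly. GI50 is the concentration that inhibits growth by half. The concentration for full growth arrest is given as TGI.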

Legend:
Assay in all cases: NCI anticancer screen, dose series, 48 h
EKVX NSCLC = tested on: EKVX NSCLC
UACC-62 melanoma = tested on: UACC-62 melanoma
NCI-H460 lung = tested on: NCI-H460 lung
HCT-15 colon = tested on: HCT-15 colon
OVCAR-5 ovarian = tested on: OVCAR-5 ovarian
SK-MEL-2 melanoma = tested on: SK-MEL-2 melanoma
HL-60(TB) leukemia = tested on: HL-60(TB) leukemia
OVCAR-8 ovarian = tested on: OVCAR-8 ovarian
RXF 393 renal = tested on: RXF 393 renal
OVCAR-4 ovarian = tested on: OVCAR-4 ovarian

Compound | TGI (EKVX NSCLC) | TGI (UACC-62 melanoma) | TGI (NCI-H460 lung) | TGI (HCT-15 colon) | TGI (OVCAR-5 ovarian) | TGI (SK-MEL-2 melanoma) | TGI (HL-60(TB) leukemia) | TGI (OVCAR-8 ovarian) | TGI (RXF 393 renal) | TGI (OVCAR-4 ovarian) | GI50 (EKVX NSCLC) | GI50 (UACC-62 melanoma) | GI50 (NCI-H460 lung) | GI50 (HCT-15 colon) | GI50 (OVCAR-5 ovarian) | GI50 (SK-MEL-2 melanoma) | GI50 (HL-60(TB) leukemia) | GI50 (OVCAR-8 ovarian) | GI50 (RXF 393 renal) | GI50 (OVCAR-4 ovarian)
COc1cc(N=Nc2cccc(S(=O)(=O)O)c2)c(C)cc1N=Nc1ccc(/C=C/c2ccc(N=[N+]([O-])c3ccc(/C=C/c4ccc(N=Nc5cc(C)c(N=Nc6cccc(S(=O)(=O)O)c6)cc5OC)cc4)c(S(=O)(=O)O)c3)cc2S(=O)(=O)O)cc1 | > 100 µM | > 100 µM | > 100 µM | > 100 µM | > 100 µM | > 100 µM | > 100 µM | > 100 µM | > 100 µM | > 100 µM | – | – | – | – | – | – | – | – | – | –
COC(=O)C(C)N1C(=O)c2ccccc2I1OC(C)=O (stereo not given) | > 100 µM | > 100 µM | > 100 µM | > 100 µM | > 100 µM | > 100 µM | > 100 µM | > 100 µM | > 100 µM | > 100 µM | > 100 µM | 23 µM | > 100 µM | 37.9 µM | > 100 µM | > 100 µM | 47.2 µM | > 100 µM | 32.3 µM | 51.3 µM
CC(C)(C)OC(=O)NC(Cc1ccccc1)C(=O)N[C@H]1c2ccsc2/C(=N/O)[C@H]1O (stereo not given in full) | > 100 µM | > 100 µM | > 100 µM | > 100 µM | > 100 µM | > 100 µM | > 100 µM | > 100 µM | > 100 µM | > 100 µM | – | – | – | – | – | – | – | – | – | –
